# Earlier results, collected in patent US20260124292A1, “MU[…] INFLUENZA VACCINE” (priority 2022, published 2026).
# Test system: influenza A virus-specific CTL
# Conditions: according to Boon et al. 2006
row,Sequence,Immunodominance
1,ELRSRYWAI (listed as Alphainfluenzavirus influenzae) [SEQ ID NO: 2],(Intermediate
2,SRYWAIRTR (listed as Alphainfluenzavirus influenzae) [SEQ ID NO: 3],(Highly
3,RRSGAAGAAVK (listed as Alphainfluenzavirus influenzae) [SEQ ID NO: 16],(Highly
4,CTELKLSDY [SEQ ID NO: 4],(Intermediate
